What was measured:
Assay in all cases: relative viability (nuclei count vs DMSO), 5 days (fraction); higher = more cells survive
[1] = compound: C1CNCCC1C2=CC(=NN2)C3=CC=NC=C3 + CS(=O)(=O)N1CCN(Cc2cc3nc(-c4cccc5[nH]ncc45)nc(N4CCOCC4)c3s2)CC1 [Pictilisib] (partner 1 µM)
Outline: (§1)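 Relative viability divides the nuclei count in treated wells by that in vehicle wells. Lung cancer cell lines were seeded in 1536-well plates, dosed by pin tool the next day, and fixed and stained after 5 days in one step with final 0.05% Triton X-100, 1% formaldehyde and 1 ug/ml Hoechst. Dosing was a single drug or a fixed anchor-drug dose plus five library-drug doses (not always all listed) in √10 steps, and values are medians of duplicate plates imaged at 4×.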

[2] = compound: C[C@@H](N)c1ccc(C(=O)Nc2ccnc3[nH]ccc23)cc1 + CS(=O)(=O)CCNCc1ccc(-c2ccc3ncnc(Nc4ccc(OCc5cccc(F)c5)c(Cl)c4)c3c2)o1 [Lapatinib] (partner 2 µM)
Outline: as §1

[3] = compound: O[C@H]1CC[C@H](Nc2ncc3nc(Nc4c(F)cc(F)cc4F)n([C@H]4CCOC4)c3n2)CC1 [Tanzisertib] + CC1(C)CCC(c2ccc(Cl)cc2)=C(CN2CCN(c3ccc(C(=O)NS(=O)(=O)c4ccc(N[C@H](CCN5CCOCC5)CSc5ccccc5)c(S(=O)(=O)C(F)(F)F)c4)cc3)CC2)C1 [Navitoclax] (partner 0.5 µM)
Outline: as §1

[4] = compound: O[C@H]1CC[C@H](Nc2ncc3nc(Nc4c(F)cc(F)cc4F)n([C@H]4CCOC4)c3n2)CC1 [Tanzisertib] + C[C@]1(O)C[C@@H](c2nc(-c3ccc4ccc(-c5ccccc5)nc4c3)c3c(N)nccn32)C1 [Linsitinib] (partner 1 µM)
Outline: as §1

Row | Cell Line | relative viability ([1]; first compound 0.08 µM) | relative viability ([1]; first compound 0.8 µM) | relative viability ([1]; first compound 2.53 µM) | relative viability ([1]; first compound 8 µM) | relative viability ([2]; first compound 0.04 µM) | relative viability ([2]; first compound 0.1265 µM) | relative viability ([2]; first compound 0.4 µM) | relative viability ([2]; first compound 4 µM) | relative viability ([3]; first compound 0.08 µM) | relative viability ([3]; first compound 0.253 µM) | relative viability ([3]; first compound 0.8 µM) | relative viability ([3]; first compound 2.53 µM) | relative viability ([3]; first compound 8 µM) | relative viability ([4]; first compound 0.08 µM) | relative viability ([4]; first compound 0.253 µM) | relative viability ([4]; first compound 0.8 µM) | relative viability ([4]; first compound 2.53 µM) | relative viability ([4]; first compound 8 µM) | relative viability ([2]; first compound 1.265 µM)
1 | NCI-H1944 | 0.377 | 0.341 | 0.334 | 0.341 | 0.759 | 0.841 | 0.769 | 0.699 | 1.11 | 1.04 | 1.04 | 1.05 | 1.03 | 1.25 | 1.18 | 1.12 | 1.12 | 0.878 | –
2 | NCI-H358 | 0.323 | 0.376 | 0.357 | 0.422 | 0.482 | 0.363 | 0.435 | 0.366 | – | – | – | – | – | 0.771 | 0.662 | 0.76 | 0.782 | 0.566 | 0.465
3 | NCI-H1734 | 0.427 | 0.451 | 0.469 | 0.452 | 1.02 | 1.15 | 1.01 | 1.12 | 1.03 | 0.777 | 0.852 | 0.867 | 0.757 | 1.09 | 0.902 | 0.861 | 0.871 | 0.87 | –
4 | A-427 | 0.707 | 0.891 | 0.685 | 0.8 | 0.968 | 1.07 | 1 | 0.885 | 0.952 | 0.938 | 1.01 | 0.86 | 0.958 | 1.15 | 1.11 | 1.14 | 1.07 | 1.17 | –
5 | ABC-1 | 0.735 | 0.812 | 0.865 | 0.869 | 1.16 | 1.02 | 1.2 | 1.36 | – | – | – | – | – | 0.728 | 0.65 | 1.07 | 0.977 | 0.736 | –
6 | LCLC-103H | 0.499 | 0.61 | 0.617 | 0.64 | – | – | – | – | – | – | – | – | – | 0.928 | 0.994 | 0.917 | 1.06 | 1.11 | –
7 | NCI-H1563 | 0.575 | 0.662 | 0.592 | 0.611 | 0.805 | 0.945 | 0.854 | 1.05 | – | – | – | – | – | 1.28 | 1.12 | 1.2 | 1.24 | 1.16 | 0.446
8 | NCI-H650 | 0.897 | 0.992 | 0.939 | 0.904 | 0.626 | 0.837 | 0.859 | 0.696 | – | – | – | – | – | 0.949 | 0.918 | 0.92 | 1.2 | 0.366 | –
9 | NCI-H1650 | 0.353 | 0.701 | 0.632 | 0.63 | 0.701 | 0.63 | 0.772 | 0.834 | 1.19 | 1.22 | 1.17 | 1.16 | 1.12 | – | – | – | – | – | 0.155
10 | NCI-H661 | 0.516 | 0.422 | 0.522 | 0.445 | 0.503 | 0.587 | 0.607 | 0.449 | – | – | – | – | – | 0.657 | 0.495 | 0.619 | 0.477 | 0.599 | 0.401
11 | NCI-H441 | 0.462 | 0.455 | 0.428 | 0.491 | – | – | – | – | 0.456 | 0.601 | 0.629 | 0.773 | 0.584 | 0.626 | 0.607 | 0.634 | 0.553 | 0.454 | –

Reference: the supplement of paper PMC10307832
